Assays:
UCP1 = conditions: described in the literature; cited from earlier work
cells in suspension = conditions: reported; cited from earlier work
hASCs = assay: differentiation of hASCs into adipocytes (PLIN1, UCP1 expression); format: cell-based, human
Procedure: In order to determine the differentiation medium, different media were tested. These media were enriched with adipogenic factors then tested for the differentiation of the hASCs. […] It should also be noted that the medium n° 5 is an option to the EGM+ which has not been pursued further.

[1] = system: hECs (endothelial cells of human adipose tissue)
Procedure: In order to determine the proliferation medium, five mediums, which are generally marketed for the proliferation of human endothelial cells, were tested.

Structure (SMILES): C[C@]12CCC(=O)C=C1CC[C@@H]1[C@@H]2[C@@H](O)C[C@@]2(C)[C@H]1CC[C@]2(O)C(=O)CO [hydrocortisone, Hydrocortisone]
- expression of UCP1 (UCP1): able to inhibit the expression of UCP1

Structure (SMILES): C[C@@H](N)[C@H]1CC[C@H](C(=O)Nc2ccncc2)CC1 [Y27632]
- cell viability in suspension (cells in suspension): increasing the cell viability in suspension

Structure (SMILES): NC(=O)c1ccc(-c2nc(-c3ccc4c(c3)OCO4)c(-c3ccccn3)[nH]2)cc1 [SB431542]
- expression of UCP1 (hASCs; addition of SB431542 and maintenance of Rosiglitazone): allows the expression of UCP1
- differentiation into adipocytes (PLIN1) (hASCs; dexamethasone and IBMX removed after the first three days, SB431542 added): allows restoring the differentiation
- viability of hECs [1]: no consequence upon the viability of hECs
